Measured values from paper PMC6471485, “Selective Inhibitors of a Human Prolyl Hydroxylase (OGFOD1) Involved in Ribosomal Decoding” (Chemistry (Weinheim an Der Bergstrasse, Germany), 2019).

Molecular target: T1, NO66 (Homo sapiens, UniProt Q9H6W3)
T1 construct: 116-641 were cloned into pFB-LIC-Bse; His (N); made in house; host or cells: Sf9 insect cells
T1 sequence (Q9H6W3 116-641 limits assumed): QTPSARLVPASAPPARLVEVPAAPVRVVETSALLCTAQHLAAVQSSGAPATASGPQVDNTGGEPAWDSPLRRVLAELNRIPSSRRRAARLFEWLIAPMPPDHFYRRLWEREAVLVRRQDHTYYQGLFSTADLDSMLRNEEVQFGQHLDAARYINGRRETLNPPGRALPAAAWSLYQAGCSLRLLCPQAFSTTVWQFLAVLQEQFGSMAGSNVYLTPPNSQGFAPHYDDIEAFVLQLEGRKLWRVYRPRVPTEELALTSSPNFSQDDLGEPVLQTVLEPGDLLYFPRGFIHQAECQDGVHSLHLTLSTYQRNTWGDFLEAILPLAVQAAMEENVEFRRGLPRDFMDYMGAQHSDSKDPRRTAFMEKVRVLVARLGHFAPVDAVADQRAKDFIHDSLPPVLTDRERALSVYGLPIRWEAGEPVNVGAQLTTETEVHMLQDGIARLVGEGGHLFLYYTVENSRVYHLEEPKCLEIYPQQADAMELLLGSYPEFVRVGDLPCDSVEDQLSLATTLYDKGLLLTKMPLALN
Assay: NO66 IC50 determination, RapidFire MS
Assay type: biochemical
Method: reactions were quenched after 4 min. KDM4A inhibition was tested as described previously using a formaldehyde dehydrogenase (FDH) assay.[9] JARID1B and JARID1C inhibition was tested as described previously using reported AlphaScreen-based assays.[10] MINA531-464 and NO66116-641 were cloned into pFB-LIC-Bse, and the N-terminal His-tagged proteins were produced in Sf9 insect cells. The MINA53 peptide substrate Rpl27a […]
(Gly31 – Pro49 […]) and the NO66 peptide substrate Rpl8
(Asn205 – Thr224 […]) were synthesized by Peptide Protein
Research Ltd (Fareham, Hampshire, UK) to >95% purity. IC50 determinations were performed in 384-well polypropylene plates (Greiner Bio One, Cat Number 781096), and compound dispenses were performed using an ECHO 550 acoustic dispenser (Labcyte, Sunnyvale, CA). […]
RapidFire integrator software (Agilent). Percent conversion was calculated in Excel, and IC50 curves were generated using Prism v. […]
Assays consisted of enzyme (2 µM), inhibitor (200 µM), MnCl2 (50 µM), and SYPRO Orange (1:5000 dilution), all prepared in 50 mM HEPES, pH 7.5. […] An Opticon thermal cycler (MJ Research Inc) was used to control temperature and measure fluorescence. […]
CPMG Binding Experiments: Binding of the inhibitors to the proteins was monitored using Carr-Purcell-Meiboom-Gill (CPMG)-edited 1H spectra. […]

Structure (SMILES)	IC50
Cn1c(O)c(C(=O)CCc2ccccc2)c(=O)n(C)c1=O [compound 26]	> 100 µM
Cn1c(O)c(C(=O)CCc2cccs2)c(=O)n(C)c1=O [compound 42]	> 100 µM
